{
  "source": "ChEMBL document CHEMBL4007424",
  "about": "“Design and Synthesis of Enantiomerically Pure Decahydroquinoxalines as Potent and Selective κ-Opioid Receptor Agonists with Anti-Inflammatory Activity in Vivo” (J Med Chem, 2017)",
  "key": {"Rattus norvegicus [1]": {"test_system": "Rattus norvegicus", "test": "Toxicity in Wistar Han rat assessed as severe lethargy at 5 mg/kg, iv after 0.25 hrs", "type": "organism-based", "details": "in vivo"}, "Rattus norvegicus [2]": {"test_system": "Rattus norvegicus", "test": "Toxicity in Wistar Han rat assessed as moderate tonic spasms at 5 mg/kg, iv after 1 hr", "type": "organism-based", "details": "in vivo"}, "Rattus norvegicus [3]": {"test_system": "Rattus norvegicus", "test": "Toxicity in Wistar Han rat assessed as flat posture at 5 mg/kg, iv after 1 hr", "type": "organism-based", "details": "in vivo"}, "[4]": {"test": "Ratio of drug level in brain to plasma in Wistar Han rat at 5 mg/kg, iv after 1 hr", "type": "ADME, organism-based", "details": "read-out: BPR"}, "Rattus norvegicus [5]": {"test_system": "Rattus norvegicus", "test": "Toxicity in Wistar Han rat assessed as moderate tonic spasms at 5 mg/kg, iv after 0.25 hrs", "type": "organism-based", "details": "in vivo"}, "Rattus norvegicus [6]": {"test_system": "Rattus norvegicus", "test": "Toxicity in Wistar Han rat assessed as severe cramped posture at 5 mg/kg, iv after 0.25 hrs", "type": "organism-based", "details": "in vivo"}, "Rattus norvegicus [7]": {"test_system": "Rattus norvegicus", "test": "Toxicity in Wistar Han rat assessed as moderate extension spasms of the tail at 5 mg/kg, iv after 0.25 hrs", "type": "organism-based", "details": "in vivo"}, "Rattus norvegicus [8]": {"test_system": "Rattus norvegicus", "test": "Toxicity in Wistar Han rat assessed as severe lethargy at 5 mg/kg, iv after 1 hr", "type": "organism-based", "details": "in vivo"}, "Rattus norvegicus [9]": {"test_system": "Rattus norvegicus", "test": "Toxicity in Wistar Han rat assessed as flat posture at 5 mg/kg, iv after 0.25 hrs", "type": "organism-based", "details": "in vivo"}, "[10]": {"test": "Plasma concentration in Wistar Han rat at 5 mg/kg, iv measured 1 hr post compound administration", "type": "ADME, organism-based"}, "Rattus norvegicus [11]": {"test_system": "Rattus norvegicus", "test": "Toxicity in Wistar Han rat assessed as severe cramped posture at 5 mg/kg, iv after 1 hr", "type": "organism-based", "details": "in vivo"}, "Rattus norvegicus [12]": {"test_system": "Rattus norvegicus", "test": "Toxicity in Wistar Han rat assessed as moderate extension spasms of the tail at 5 mg/kg, iv after 1 hr", "type": "organism-based", "details": "in vivo"}, "[13]": {"test": "Plasma concentration in Wistar Han rat at 5 mg/kg, iv measured 0.25 hrs post compound administration", "type": "ADME, organism-based"}, "[14]": {"test": "Drug level in Wistar Han rat brain at 5 mg/kg, iv measured 1 hr post compound administration", "type": "ADME, organism-based", "details": "read-out: Drug uptake"}, "[15]": {"biological_target": "Mu-type opioid receptor (Cavia porcellus) (UniProt P97266)", "sequence (P97266 whole entry)": "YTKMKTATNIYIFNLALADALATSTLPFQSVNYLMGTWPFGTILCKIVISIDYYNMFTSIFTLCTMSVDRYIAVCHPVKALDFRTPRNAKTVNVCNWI", "test": "Displacement of [3H]DAMGO from mu-type opioid receptor in guinea pig brain membranes at 1 uM after 120 mins by solid scintillation counting", "type": "cell membranes", "details": "Membrane"}, "[16]": {"biological_target": "Kappa-type opioid receptor (Homo sapiens, UniProt P41145)", "sequence (P41145 whole entry)": "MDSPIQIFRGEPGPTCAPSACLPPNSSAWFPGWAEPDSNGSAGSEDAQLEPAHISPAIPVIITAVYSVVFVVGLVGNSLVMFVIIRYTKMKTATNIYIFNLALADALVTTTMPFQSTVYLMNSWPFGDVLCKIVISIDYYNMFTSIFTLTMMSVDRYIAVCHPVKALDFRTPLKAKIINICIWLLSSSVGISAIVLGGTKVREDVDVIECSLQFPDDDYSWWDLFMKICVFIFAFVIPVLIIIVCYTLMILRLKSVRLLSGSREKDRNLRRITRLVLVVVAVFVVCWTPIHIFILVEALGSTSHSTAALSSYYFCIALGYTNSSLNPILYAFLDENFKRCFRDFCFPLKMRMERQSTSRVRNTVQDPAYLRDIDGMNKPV", "test": "Agonist activity at recombinant human kappa-type opioid receptor expressed in HEK293 cells at 1 uM after 30 mins by [35S]GTPgammaS binding assay", "type": "functional, cell-based"}, "Cavia porcellus": {"species_on_record": "Cavia porcellus", "test": "Selectivity ratio of Ki for delta-type opioid receptor in guinea pig brain membranes to Ki for kappa-type opioid receptor in guinea pig brain membranes", "type": "cell membranes"}, "Mus musculus [17]": {"test_system": "Mus musculus", "test": "(§1) Antiinflammatory activity in oxazolone-induced delayed type hypersensitivity BALB/c mouse model assessed as reduction in ear weight at 0.1 to 2.5 mg applied topically on ear administered 3 hrs prior to oxazolone challenge on day 7 to 12 post sensitization followed by re-administration of compound on day 13 to 18 without oxazolone challenge measured on day 19", "type": "functional"}, "[18]": {"biological_target": "Sigma non-opioid intracellular receptor 1 (Cavia porcellus) (UniProt Q60492)", "sequence (Q60492 whole entry)": "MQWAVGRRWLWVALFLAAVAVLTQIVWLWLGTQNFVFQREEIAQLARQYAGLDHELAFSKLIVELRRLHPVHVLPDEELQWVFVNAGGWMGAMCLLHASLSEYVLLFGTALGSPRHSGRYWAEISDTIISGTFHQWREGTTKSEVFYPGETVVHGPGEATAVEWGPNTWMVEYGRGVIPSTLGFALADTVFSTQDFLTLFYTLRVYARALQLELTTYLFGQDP", "test": "Displacement of [3H]-(+)-pentazocine from sigma1-type […] receptor in guinea pig cortex membranes at 1 uM after 120 mins by solid scintillation counting", "type": "cell membranes"}, "Mus musculus [19]": {"test_system": "Mus musculus", "test": "Antiinflammatory activity in oxazolone-induced delayed type hypersensitivity BALB/c mouse model assessed as effect on histology changes at 0.1 to 2.5 mg applied topically on ear administered 3 hrs prior to oxazolone challenge on day 7 to 12 post sensitization followed by re-administration of compound on day 13 to 18 without oxazolone challenge measured daily prior to treatment from day 7 to 19 by H and E staining based assay", "type": "functional"}, "Sus scrofa": {"species_on_record": "Sus scrofa", "test": "Displacement of [3H]-(+)-MK 801 from PCP binding site of NMDA receptor in pig brain cortex membranes at 10 uM after 120 mins by solid scintillation counting", "type": "cell membranes"}, "Rattus norvegicus [20]": {"species_on_record": "Rattus norvegicus", "test": "Displacement of [3H]-DTG from sigma 2 receptor in rat liver membranes at 1 uM after 120 mins by scintillation counting", "type": "cell membranes", "details": "Membrane"}, "Mus musculus [21]": {"test_system": "Mus musculus", "test": "(§2) Antiinflammatory activity in oxazolone-induced delayed type hypersensitivity BALB/c mouse model assessed as reduction in ear swelling at 0.1 to 2.5 mg applied topically on ear administered 3 hrs prior to oxazolone challenge on day 7 to 12 post sensitization followed by re-administration of compound on day 13 to 18 without oxazolone challenge measured daily prior to treatment from day 7 to 19", "type": "functional"}, "[22]": {"test": "Ratio of drug level in brain to plasma in Wistar Han rat at 1 mg/kg, iv after 1 hr", "type": "ADME, organism-based", "details": "read-out: BPR"}, "Rattus norvegicus [23]": {"test_system": "Rattus norvegicus", "test": "Toxicity in Wistar Han rat assessed as induction of slight lethargy at 5 mg/kg, iv after 1 hr", "type": "organism-based", "details": "in vivo"}, "Rattus norvegicus [24]": {"test_system": "Rattus norvegicus", "test": "Toxicity in Wistar Han rat assessed as induction of slight lethargy at 1 mg/kg, iv after 0.25 hrs", "type": "organism-based", "details": "in vivo"}, "[25]": {"test": "Drug level in Wistar Han rat brain at 1 mg/kg, iv measured 1 hr post compound administration", "type": "ADME, organism-based", "details": "Wistar Han, brain, read-out: Drug uptake"}, "[26]": {"test": "Plasma concentration in Wistar Han rat at 1 mg/kg, iv measured 0.25 hrs post compound administration", "type": "ADME, organism-based"}, "[27]": {"test": "Plasma concentration in Wistar Han rat at 1 mg/kg, iv measured 1 hr post compound administration", "type": "ADME, organism-based"}, "Mus musculus [28]": {"test_system": "Mus musculus", "test": "as §1, with “inflammatory infiltrate” for “ear weight”, “19 by H and E based staining” for “19”", "type": "functional"}, "Mus musculus [29]": {"test_system": "Mus musculus", "test": "as §2, with “at” for “at 0.1 to”", "type": "functional"}, "Mus musculus [30]": {"test_system": "Mus musculus", "test": "(§3) Antiinflammatory activity in tropically administered oxazolone-induced delayed type hypersensitivity BALB/c mouse model assessed as reduction in ear thickness administered 3 hrs prior to oxazolone challenge on day 7 to 12 post sensitization followed by re-administration of compound on day 13 to 18 without oxazolone challenge measured on day 19", "type": "functional"}, "Mus musculus [31]": {"test_system": "Mus musculus", "test": "Antiinflammatory activity in tropically administered oxazolone-induced delayed type hypersensitivity BALB/c mouse model assessed as reduction in T-lymphocytes in ear administered 3 hrs prior to oxazolone challenge on day 7 to 12 post sensitization followed by re-administration of compound on day 13 to 18 without oxazolone challenge measured on day 19 by DAPI-staining based fluorescence microscopic analysis", "type": "functional, cell-based"}, "Mus musculus [32]": {"test_system": "Mus musculus", "test": "as §3, with “effect on” for “reduction in”, “weight” for “thickness”", "type": "functional"}, "Mus musculus [33]": {"test_system": "Mus musculus", "test": "as §1, with “at” for “at 0.1 to”", "type": "functional"}, "Mus musculus [34]": {"test_system": "Mus musculus", "test": "as §1, with “thickness” for “weight”, “19 by H and E based staining” for “19”", "type": "functional"}},
  "note": "Active and inactive are the calls of the source. No cut-off for these calls is given here.",
  "data": [
    {"smiles": "COC(=O)N1CCN(C(=O)Cc2ccc(F)c(Cl)c2)[C@@H]2[C@@H](N3CC[C@H](F)C3)CCC[C@@H]21.Cl", "values": [
      {"measurement": "Activity", "setting": "Rattus norvegicus [1]", "value": "Toxic"},
      {"measurement": "Activity", "setting": "Rattus norvegicus [2]", "value": "Toxic"},
      {"measurement": "Activity", "setting": "Rattus norvegicus [3]", "value": "Toxic"},
      {"measurement": "Kp at 1 h", "setting": "[4]", "value": 0.11},
      {"measurement": "Activity", "setting": "Rattus norvegicus [5]", "value": "Toxic"},
      {"measurement": "Activity", "setting": "Rattus norvegicus [6]", "value": "Toxic"},
      {"measurement": "Activity", "setting": "Rattus norvegicus [7]", "value": "Toxic"},
      {"measurement": "Activity", "setting": "Rattus norvegicus [8]", "value": "Toxic"},
      {"measurement": "Activity", "setting": "Rattus norvegicus [9]", "value": "Toxic"},
      {"measurement": "concentration at 1 h", "setting": "[10]", "value": 0.811, "unit": "µg/mL"},
      {"measurement": "Activity", "setting": "Rattus norvegicus [11]", "value": "Toxic"},
      {"measurement": "Activity", "setting": "Rattus norvegicus [12]", "value": "Toxic"},
      {"measurement": "concentration at 0.25 h", "setting": "[13]", "value": 3.07, "unit": "µg/mL"},
      {"measurement": "concentration at 1 h", "setting": "[14]", "value": 86.6, "unit": "ng/g"}
    ]},
    {"smiles": "COC(=O)N1CCN(C(=O)Cc2ccc(F)c(Cl)c2)[C@@H]2[C@@H](N3CC[C@H](F)C3)CCC[C@@H]21", "values": [
      {"measurement": "inhibition", "setting": "[15]", "value": 0, "unit": "%"},
      {"measurement": "Activity", "setting": "[16]", "value": 92, "unit": "%"},
      {"measurement": "Ratio Ki", "setting": "Cavia porcellus", "value": 100},
      {"measurement": "Activity", "setting": "Mus musculus [17]", "value": "inactive"},
      {"measurement": "inhibition", "setting": "[18]", "value": 0, "unit": "%"},
      {"measurement": "Activity", "setting": "Mus musculus [19]", "value": "Active"},
      {"measurement": "inhibition", "setting": "Sus scrofa", "value": 0, "unit": "%"},
      {"measurement": "inhibition", "setting": "Rattus norvegicus [20]", "value": 0, "unit": "%"},
      {"measurement": "Activity", "setting": "Mus musculus [21]", "value": "inactive"}
    ]},
    {"smiles": "COC(=O)N1CCN(C(=O)Cc2ccc(Cl)c(Cl)c2)[C@@H]2[C@@H](N(C)C)CCC[C@@H]21.Cl", "values": [
      {"measurement": "Kp at 1 h", "setting": "[22]", "value": 0.54},
      {"measurement": "Activity", "setting": "Rattus norvegicus [23]", "value": "Toxic"},
      {"measurement": "Activity", "setting": "Rattus norvegicus [24]", "value": "Toxic"},
      {"measurement": "concentration at 1 h", "setting": "[25]", "value": 101, "unit": "ng/g"},
      {"measurement": "concentration at 0.25 h", "setting": "[26]", "value": 0.355, "unit": "µg/mL"},
      {"measurement": "concentration at 1 h", "setting": "[27]", "value": 0.186, "unit": "µg/mL"}
    ]},
    {"smiles": "CS(=O)(=O)N1CCN(C(=O)Cc2ccc(Cl)c(Cl)c2)[C@@H]2[C@@H](N3CC[C@H](O)C3)CCC[C@@H]21", "values": [
      {"measurement": "Activity", "setting": "Mus musculus [28]", "value": "Dose-dependent effect"},
      {"measurement": "Activity", "setting": "[16]", "value": 106, "unit": "%"},
      {"measurement": "Activity", "setting": "Mus musculus [29]", "value": "Active"},
      {"measurement": "Activity", "setting": "Mus musculus [30]", "value": "Dose-dependent effect"},
      {"measurement": "Activity", "setting": "Mus musculus [31]", "value": "Dose-dependent effect"},
      {"measurement": "Activity", "setting": "Mus musculus [17]", "value": "Dose-dependent effect"},
      {"measurement": "Activity", "setting": "Mus musculus [32]", "value": "Dose-dependent effect"},
      {"measurement": "inhibition", "setting": "[18]", "value": 0, "unit": "%"},
      {"measurement": "Activity", "setting": "Mus musculus [19]", "value": "Active"},
      {"measurement": "inhibition", "setting": "Sus scrofa", "value": 0, "unit": "%"},
      {"measurement": "Activity", "setting": "Mus musculus [33]", "value": "Active"},
      {"measurement": "inhibition", "setting": "Rattus norvegicus [20]", "value": 15, "unit": "%"},
      {"measurement": "Activity", "setting": "Mus musculus [34]", "value": "Dose-dependent effect"}
    ]}
  ]
}
